Test results taken from patent EP2522331A1, “Use of resveratrol and niacinamide” (DSM IP Assets B.V., priority 2011, dated 2012).
Like-named read-outs stand apart in the source and are kept apart here.

System: MYO5A
Experiment: Gene modulation (RT-qPCR, PCR array mQPA H-Melanocyte-64) in normal human epidermal melanocytes (NHEM)
Assay type: cell-based
Settings: NHEM cells
Description: Normal human epidermal melanocytes were cultivated for 24 hours. Culture medium was then removed and replaced by fresh medium containing the active ingredient to be evaluated or exempt of it (control). Cells were cultivated for additional 72 hours. All experimental conditions were performed in triplicate.
At the end of the cultivation, the cells were harvested and washed with phosphate buffered saline (PBS) solution and immediately frozen at -80 °C. The expression of selected markers was analyzed using RT-qPCR method on mRNA extracted from cells layer for each treatment condition. The differential expression analysis was performed by PCR arrays of the screening format "mQPA H-Melanocyte-64", which focuses on 64 genes selected for their importance in pigmentation and melanocyte biology.
Total RNA was extracted from each sample using TRI-Reagent®. The amount and quality of the RNA was evaluated using a lab-on-a-chip Bioanalyzer (Agilent technologies). Potential contaminants traces of DNA were removed […] The incorporation of fluorescence in amplified DNA was measured continuously during the PCR cycles. […] The value selected for RE calculations is the "output point" (Ct) of the fluorescence curve. For a given marker, the highest is the cycle number; the lowest, is the mRNA quantity. The RE value is expressed in arbitrary units (AU) according to the equation: (((1)/(2)))^NC x 10^6 [formula] Where NC is the number of cycles.
The analysis of the gene expression of selected melanogenesis genes in NEHM cells treated with resveratrol (5 micrograms/ml) on one side, and Niaciamide (0.5 mg/ml) on the other side, has been compared with the gene expression of the same selected melanogenesis genes in NEHM cells treated with a combination of resveratrol (5 micrograms/ml) and Niaciamide (0.5 mg/ml).

[1] = 72 hours treatment, resveratrol 5 µg/ml, niacinamide 0.5 mg/ml, combination 5 µg/ml + 0.5 mg/ml, read-out: MYO5A (expression ratio compared to control)
[2] = 72 hours, resveratrol 5 micrograms/ml alone or niacinamide 0.5 mg/ml alone, read-out: down-regulation of MYO5A (signed change when compared to untreated cells)

Row | SMILES | inhibition at 500 µg/mL [1] [%] | inhibition at 500 µg/mL [2] [%] | inhibition at 5 µg/mL [1] [%] | inhibition at 5 µg/mL [2] [%]
1 | NC(=O)c1cccnc1 [Niacinamide, 3-pyridinecarboxamide] | 15 | 15 |  | 
2 | Oc1ccc(C=Cc2cc(O)cc(O)c2)cc1 [Resveratrol, 3,4',5 trihydroxystilbene] |  |  | 25 | 25
